According to BigSolDB 2.1:

O=C(NNC(=S)Nc1ccc(Cl)cc1)c1ccncc1
Details	solubility (mole fraction)
in PEG-400, 298.15 K	0.108
in PEG-400, 308.15 K	0.114
in PEG-400, 318.15 K	0.12
in PEG-400, 328.15 K	0.126
in PEG-400, 338.15 K	0.131

solubility (mole fraction)
Details	298.15 K	308.15 K	318.15 K	328.15 K	338.15 K
in ethanol	0.000647	0.000693	0.000743	0.000792	0.000834
in ethylene glycol	0.0077	0.00841	0.00894	0.00961	0.0104
in isopropanol	0.00113	0.00121	0.00121	0.00129	0.00138
in propylene glycol	0.00738	0.00789	0.00848	0.00909	0.00987
